Experiments:
Assay in all cases: Test G pre/postemergence
Format in all cases: in vivo
[1] = system: Russian thistle (Salsola kali); conditions: Preemergence, scale 0-100
In short: (§1)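 Test chemicals in a non-phytotoxic solvent blend with surfactant are applied to soil after seeding or to foliage of 2–18 cm seedlings. Greenhouse response is scored visually at 12–21 days on a 0 to 100 control scale.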

[2] = system: Canada horseweed (Conyza canadensis)
In short: as §1

[3] = system: guineagrass (Panicum maximum)
In short: as §1

[4] = system: bermudagrass (Cynodon dactylon)
In short: as §1

[5] = system: itchgrass (Rottboellia cochinchinensis)
In short: as §1

[6] = system: common purslane (Portulaca oleracea)
In short: as §1

[7] = system: dallisgrass (Paspalum dilatatum)
In short: as §1

[8] = system: common groundsel (Senecio vulgaris)
In short: as §1

[9] = system: common ragweed (Ambrosia elatior)
In short: as §1

kochia (Kochia scoparia) = system: kochia (Kochia scoparia)
In short: as §1

[10] = system: Surinam grass (Brachiaria decumbens)
In short: as §1

[11] = Postemergence, 8 g ai/ha, scale 0 to 100
[12] = Postemergence, 16 g ai/ha, scale 0 to 100
[13] = Postemergence, 31 g ai/ha, scale 0 to 100
[14] = Postemergence, 62 g ai/ha, scale 0 to 100
[15] = Preemergence, 8 g ai/ha, scale 0-100
[16] = Preemergence, 16 g ai/ha, scale 0-100
[17] = Preemergence, 31 g ai/ha, scale 0-100
[18] = Preemergence, 62 g ai/ha, scale 0-100

How did the “Plant response rating, Russian Thistle” value ([1]; 8 g ai/ha) turn out when `CCOC(=O)c1nc(-c2ccc(Cl)cc2)nc(N)c1Cl` [Compound 64, ethyl 6-amino-5-chloro-2-(4-chlorophenyl)-4-pyrimidinecarboxylate] was run?
The value was 0.

And the “Plant response rating, Russian Thistle” value ([1]; 31 g ai/ha)?
Its value is 0.

And the “Plant response rating, Russian Thistle” value ([1]; 62 g ai/ha)?
Its value is 0.

What about the “Plant response rating, Horseweed” value [2, 11] of the same compound?
The value was 60.

And the “Plant response rating, Horseweed” value [2, 12]?
The value was 60.

What about the “Plant response rating, Horseweed” value [2, 13] of the same compound?
Its value is 60.

And the “Plant response rating, Horseweed” value [2, 14]?
Its value is 60.

And the “Plant response rating, Horseweed” value [2, 15]?
Its value is 0.

And the “Plant response rating, Horseweed” value [2, 16]?
The value was 75.

What about the “Plant response rating, Horseweed” value [2, 17] of the same compound?
The value was 95.

And the “Plant response rating, Horseweed” value [2, 18]?
Its value is 95.

And the “Plant response rating, Guineagrass” value [3, 11]?
Its value is 0.

What about the “Plant response rating, Guineagrass” value [3, 12] of the same compound?
Its value is 0.

What about the “Plant response rating, Guineagrass” value [3, 13] of the same compound?
Its value is 0.

And the “Plant response rating, Guineagrass” value [3, 14]?
Its value is 0.

And the “Plant response rating, Guineagrass” value [3, 15]?
Its value is 0.

What about the “Plant response rating, Guineagrass” value [3, 16] of the same compound?
The value was 0.

What about the “Plant response rating, Guineagrass” value [3, 17] of the same compound?
Its value is 0.

What about the “Plant response rating, Guineagrass” value [3, 18] of the same compound?
Its value is 0.

What about the “Plant response rating, Bermudagrass” value [4, 11] of the same compound?
Its value is 0.

And the “Plant response rating, Bermudagrass” value [4, 12]?
The value was 20.

And the “Plant response rating, Bermudagrass” value [4, 13]?
The value was 35.

And the “Plant response rating, Bermudagrass” value [4, 14]?
Its value is 35.

What about the “Plant response rating, Bermudagrass” value [4, 15] of the same compound?
The value was 0.

What about the “Plant response rating, Bermudagrass” value [4, 16] of the same compound?
The value was 0.

What about the “Plant response rating, Bermudagrass” value [4, 17] of the same compound?
Its value is 0.

What about the “Plant response rating, Bermudagrass” value [4, 18] of the same compound?
The value was 0.

And the “Plant response rating, Itchgrass” value [5, 11]?
Its value is 0.

What about the “Plant response rating, Itchgrass” value [5, 12] of the same compound?
Its value is 0.

What about the “Plant response rating, Itchgrass” value [5, 13] of the same compound?
Its value is 0.

What about the “Plant response rating, Itchgrass” value [5, 14] of the same compound?
The value was 60.

What about the “Plant response rating, Itchgrass” value [5, 15] of the same compound?
Its value is 0.

What about the “Plant response rating, Itchgrass” value [5, 16] of the same compound?
Its value is 0.

What about the “Plant response rating, Itchgrass” value [5, 17] of the same compound?
Its value is 0.

And the “Plant response rating, Itchgrass” value [5, 18]?
Its value is 20.

And the “Plant response rating, Purslane” value [6, 11]?
The value was 0.

And the “Plant response rating, Purslane” value [6, 12]?
Its value is 0.

What about the “Plant response rating, Purslane” value [6, 13] of the same compound?
The value was 0.

And the “Plant response rating, Purslane” value [6, 14]?
The value was 60.

And the “Plant response rating, Purslane” value [6, 15]?
The value was 0.

What about the “Plant response rating, Purslane” value [6, 16] of the same compound?
Its value is 0.

And the “Plant response rating, Purslane” value [6, 17]?
Its value is 0.

What about the “Plant response rating, Purslane” value [6, 18] of the same compound?
The value was 35.

What about the “Plant response rating, Dallisgrass” value [7, 11] of the same compound?
The value was 0.

And the “Plant response rating, Dallisgrass” value [7, 12]?
Its value is 0.

And the “Plant response rating, Dallisgrass” value [7, 13]?
Its value is 0.

What about the “Plant response rating, Dallisgrass” value [7, 14] of the same compound?
Its value is 20.

What about the “Plant response rating, Dallisgrass” value [7, 15] of the same compound?
Its value is 0.

And the “Plant response rating, Dallisgrass” value [7, 16]?
The value was 0.

And the “Plant response rating, Dallisgrass” value [7, 17]?
The value was 0.

And the “Plant response rating, Dallisgrass” value [7, 18]?
The value was 0.

What about the “Plant response rating, Groundsel” value [8, 11] of the same compound?
The value was 0.

What about the “Plant response rating, Groundsel” value [8, 12] of the same compound?
The value was 0.

What about the “Plant response rating, Groundsel” value [8, 13] of the same compound?
The value was 0.

What about the “Plant response rating, Groundsel” value [8, 14] of the same compound?
The value was 0.

And the “Plant response rating, Groundsel” value [8, 15]?
The value was 0.

And the “Plant response rating, Groundsel” value [8, 16]?
The value was 0.

And the “Plant response rating, Groundsel” value [8, 17]?
The value was 10.

And the “Plant response rating, Groundsel” value [8, 18]?
The value was 40.

And the “Plant response rating, Ragweed” value [9, 11]?
Its value is 75.

What about the “Plant response rating, Ragweed” value [9, 12] of the same compound?
The value was 75.

What about the “Plant response rating, Ragweed” value [9, 13] of the same compound?
The value was 100.

What about the “Plant response rating, Ragweed” value [9, 14] of the same compound?
The value was 100.

What about the “Plant response rating, Ragweed” value [9, 15] of the same compound?
Its value is 65.

And the “Plant response rating, Ragweed” value [9, 16]?
The value was 65.

What about the “Plant response rating, Ragweed” value [9, 17] of the same compound?
The value was 65.

What about the “Plant response rating, Ragweed” value [9, 18] of the same compound?
Its value is 95.

What about the “Plant response rating, Kochia” value (kochia (Kochia scoparia); [11]) of the same compound?
Its value is 65.

And the “Plant response rating, Kochia” value (kochia (Kochia scoparia); [12])?
The value was 75.

What about the “Plant response rating, Kochia” value (kochia (Kochia scoparia); [13]) of the same compound?
The value was 85.

And the “Plant response rating, Kochia” value (kochia (Kochia scoparia); [14])?
Its value is 90.

And the “Plant response rating, Kochia” value (kochia (Kochia scoparia); [15])?
Its value is 0.

And the “Plant response rating, Kochia” value (kochia (Kochia scoparia); [16])?
The value was 0.

What about the “Plant response rating, Kochia” value (kochia (Kochia scoparia); [17]) of the same compound?
Its value is 10.

And the “Plant response rating, Kochia” value (kochia (Kochia scoparia); [18])?
The value was 15.

And the “Plant response rating, Surinam Grass” value [10, 11]?
The value was 0.

What about the “Plant response rating, Surinam Grass” value [10, 12] of the same compound?
The value was 0.

What about the “Plant response rating, Surinam Grass” value [10, 13] of the same compound?
Its value is 0.

And the “Plant response rating, Surinam Grass” value [10, 14]?
The value was 10.

And the “Plant response rating, Surinam Grass” value [10, 15]?
Its value is 0.

And the “Plant response rating, Surinam Grass” value [10, 16]?
Its value is 0.

And the “Plant response rating, Surinam Grass” value [10, 17]?
The value was 0.

What about the “Plant response rating, Surinam Grass” value [10, 18] of the same compound?
The value was 0.
